According to patent US12427210B2, “Compounds comprising a fibroblast activation protein ligand and use thereof” (priority 2019, dated 2025):
Read-outs that look alike come from different tables or passages of the source. Numbered stars: 1 amine (or outer) side, 2 acyl side, 3 side chain; on linkers, the order of the positions; unused ones are H or OH. Bridge positions count the residues as written; N and C are the ends. Peptide text beside a SMILES is read from it. * marks the point of attachment. X1 = O=C(O)CN1CCN(CC(=O)O)CCN(CC(=O)N2CCN(Cc3cc(C[*:1])cc(C[*:2])c3)CC2)CCN(CC(=O)O)CC1; Hexanoyl = CCCCCC(=O)*

How the values were obtained:
[1] = test system: serine protease NS3 (a.a. 3-181) from Hepatitis C virus genotype 1a (mutant D168V)
[2] = molecular target: CCK1 (CCKA) (h) (Homo sapiens, UniProt P32238); assay: biochemical; settings: read-out: % Inhibition of Specific Binding
[3] = molecular target: D1 (h) (Homo sapiens, UniProt P21728); assay: biochemical; settings: read-out: % Inhibition of Specific Binding
[4] = molecular target: MAO-A (Rattus norvegicus, UniProt P21396); assay: biochemical; settings: read-out: % Inhibition of Specific Binding
[5] = molecular target: kappa (h) (KOP) (Homo sapiens, UniProt P41145); assay: biochemical; settings: read-out: % Inhibition of Specific Binding
[6] = molecular target: 5-HT2B (h) (Homo sapiens, UniProt P41595); assay: biochemical; settings: read-out: % Inhibition of Specific Binding
[7] = molecular target: dopamine transporter (h) (Homo sapiens, UniProt Q01959); assay: biochemical; settings: read-out: % Inhibition of Specific Binding
[8] = molecular target: COX1(h) (Homo sapiens, UniProt P23219); assay: biochemical; settings: read-out: % Inhibition of Specific Binding
[9] = molecular target: Caspase-9 (Homo sapiens, UniProt P55211); assay: biochemical; settings: read-out: Percentage inhibition (%)
[10] = molecular target: T1, Deubiquitinase OTUD6B (Homo sapiens, UniProt Q8N6M0); assay: biochemical; settings: read-out: Percentage inhibition (%)
T1 sequence (Q8N6M0 1-293): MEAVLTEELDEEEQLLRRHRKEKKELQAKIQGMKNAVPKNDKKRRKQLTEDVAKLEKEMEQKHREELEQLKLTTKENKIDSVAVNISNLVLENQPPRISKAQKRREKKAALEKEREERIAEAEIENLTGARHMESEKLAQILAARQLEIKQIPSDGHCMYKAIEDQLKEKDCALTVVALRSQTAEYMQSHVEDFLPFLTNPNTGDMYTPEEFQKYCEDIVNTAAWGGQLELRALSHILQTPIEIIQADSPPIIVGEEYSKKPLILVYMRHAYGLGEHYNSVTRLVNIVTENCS

[11] = molecular target: Ubiquitin carboxyl-terminal hydrolase 7 (Homo sapiens, UniProt Q93009); assay: biochemical; settings: read-out: Percentage inhibition (%)
[12] = molecular target: T2, Ubiquitin carboxyl-terminal hydrolase 8 (Homo sapiens, UniProt P40818); assay: biochemical; settings: read-out: Percentage inhibition (%)
T2 sequence (P40818 1-1118): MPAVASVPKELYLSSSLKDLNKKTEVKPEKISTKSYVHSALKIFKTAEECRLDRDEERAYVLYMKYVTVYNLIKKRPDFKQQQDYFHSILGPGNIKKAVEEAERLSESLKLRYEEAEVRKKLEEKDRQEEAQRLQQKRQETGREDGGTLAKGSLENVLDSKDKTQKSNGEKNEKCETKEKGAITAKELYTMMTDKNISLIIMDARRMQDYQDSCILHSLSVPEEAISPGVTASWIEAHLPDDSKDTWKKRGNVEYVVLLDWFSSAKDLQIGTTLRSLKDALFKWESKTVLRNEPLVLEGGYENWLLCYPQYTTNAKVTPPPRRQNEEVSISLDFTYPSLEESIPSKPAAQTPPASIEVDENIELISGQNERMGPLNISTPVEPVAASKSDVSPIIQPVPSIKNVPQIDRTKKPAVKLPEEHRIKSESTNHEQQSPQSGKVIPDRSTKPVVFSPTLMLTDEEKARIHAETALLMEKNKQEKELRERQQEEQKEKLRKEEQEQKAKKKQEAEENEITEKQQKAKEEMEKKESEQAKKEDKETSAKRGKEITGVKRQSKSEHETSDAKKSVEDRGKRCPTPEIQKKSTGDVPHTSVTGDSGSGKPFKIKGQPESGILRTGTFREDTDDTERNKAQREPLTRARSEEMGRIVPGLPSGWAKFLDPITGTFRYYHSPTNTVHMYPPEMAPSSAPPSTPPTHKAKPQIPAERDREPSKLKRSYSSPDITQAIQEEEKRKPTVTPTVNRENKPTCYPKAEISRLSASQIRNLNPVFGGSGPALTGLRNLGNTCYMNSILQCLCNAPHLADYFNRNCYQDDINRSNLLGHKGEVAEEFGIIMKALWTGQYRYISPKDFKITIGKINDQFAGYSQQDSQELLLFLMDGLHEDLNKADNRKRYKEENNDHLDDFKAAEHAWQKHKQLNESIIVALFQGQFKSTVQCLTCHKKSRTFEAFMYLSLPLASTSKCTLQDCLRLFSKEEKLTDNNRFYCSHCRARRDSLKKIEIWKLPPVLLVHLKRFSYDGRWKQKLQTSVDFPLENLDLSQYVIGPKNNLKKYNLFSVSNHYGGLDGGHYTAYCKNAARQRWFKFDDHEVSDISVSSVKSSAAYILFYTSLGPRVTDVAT

[13] = molecular target: DPP8 (Homo sapiens, UniProt Q6V1X1); assay: biochemical; settings: read-out: Percentage inhibition (%)
[14] = molecular target: T3, Matrix metalloprotease 9 (mutant Q279R) (Homo sapiens, UniProt P14780, Q279R); assay: biochemical; settings: read-out: Percentage inhibition (%)
T3 sequence (P14780 94-707 Q279R): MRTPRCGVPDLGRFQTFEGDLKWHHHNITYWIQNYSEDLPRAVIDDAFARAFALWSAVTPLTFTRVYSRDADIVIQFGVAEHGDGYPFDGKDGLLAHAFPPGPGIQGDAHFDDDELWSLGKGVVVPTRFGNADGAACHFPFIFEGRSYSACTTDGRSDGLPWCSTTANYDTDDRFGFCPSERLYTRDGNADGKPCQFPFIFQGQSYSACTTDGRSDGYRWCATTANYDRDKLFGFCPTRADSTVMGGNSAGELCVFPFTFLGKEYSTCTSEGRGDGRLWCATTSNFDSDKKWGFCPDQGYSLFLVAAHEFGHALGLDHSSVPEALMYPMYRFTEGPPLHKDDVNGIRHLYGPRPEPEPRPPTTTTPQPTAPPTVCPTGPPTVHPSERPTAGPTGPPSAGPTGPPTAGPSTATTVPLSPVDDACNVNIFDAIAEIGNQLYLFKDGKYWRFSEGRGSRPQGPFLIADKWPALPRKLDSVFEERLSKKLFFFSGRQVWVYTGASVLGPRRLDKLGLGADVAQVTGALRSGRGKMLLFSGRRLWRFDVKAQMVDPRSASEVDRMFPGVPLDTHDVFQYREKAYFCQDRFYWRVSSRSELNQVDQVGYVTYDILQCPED

DPP8, sequence (Q6V1X1 whole entry, species assumed): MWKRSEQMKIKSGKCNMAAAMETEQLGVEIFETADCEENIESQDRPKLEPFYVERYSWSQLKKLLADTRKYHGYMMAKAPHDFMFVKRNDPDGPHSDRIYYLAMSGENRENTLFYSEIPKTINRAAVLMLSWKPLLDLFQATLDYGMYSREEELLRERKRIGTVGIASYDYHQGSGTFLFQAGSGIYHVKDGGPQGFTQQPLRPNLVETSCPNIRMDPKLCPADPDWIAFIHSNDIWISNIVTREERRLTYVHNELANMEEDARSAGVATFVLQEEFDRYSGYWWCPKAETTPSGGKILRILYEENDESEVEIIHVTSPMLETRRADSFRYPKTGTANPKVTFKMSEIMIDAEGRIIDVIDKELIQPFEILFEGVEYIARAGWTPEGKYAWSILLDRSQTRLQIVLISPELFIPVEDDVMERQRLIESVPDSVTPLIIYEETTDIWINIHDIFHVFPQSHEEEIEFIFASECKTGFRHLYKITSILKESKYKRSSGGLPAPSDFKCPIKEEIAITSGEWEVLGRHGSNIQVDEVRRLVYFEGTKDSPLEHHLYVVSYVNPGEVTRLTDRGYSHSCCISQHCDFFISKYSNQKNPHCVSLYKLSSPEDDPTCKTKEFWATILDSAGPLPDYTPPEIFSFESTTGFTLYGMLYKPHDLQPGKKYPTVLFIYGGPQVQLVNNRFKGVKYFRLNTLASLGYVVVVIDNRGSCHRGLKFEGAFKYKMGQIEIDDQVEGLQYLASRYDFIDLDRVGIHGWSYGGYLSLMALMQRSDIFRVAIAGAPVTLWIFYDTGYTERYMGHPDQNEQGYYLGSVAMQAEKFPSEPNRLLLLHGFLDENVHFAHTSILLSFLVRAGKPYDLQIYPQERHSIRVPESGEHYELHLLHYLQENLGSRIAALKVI
Caspase-9, sequence (P55211 1-315 limits assumed, species assumed): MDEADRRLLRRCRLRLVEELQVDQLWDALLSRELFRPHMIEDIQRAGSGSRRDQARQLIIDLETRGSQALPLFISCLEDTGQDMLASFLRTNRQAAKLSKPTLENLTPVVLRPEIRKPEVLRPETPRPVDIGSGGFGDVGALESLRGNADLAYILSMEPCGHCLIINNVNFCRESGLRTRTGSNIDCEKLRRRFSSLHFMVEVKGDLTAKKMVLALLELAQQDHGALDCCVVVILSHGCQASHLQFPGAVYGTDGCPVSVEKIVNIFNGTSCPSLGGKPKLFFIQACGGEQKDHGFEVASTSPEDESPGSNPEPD
Caspase-9, sequence (P55211 331-416 limits assumed, species assumed): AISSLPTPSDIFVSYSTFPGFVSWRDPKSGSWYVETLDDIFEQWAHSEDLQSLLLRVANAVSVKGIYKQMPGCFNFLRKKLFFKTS
Ubiquitin carboxyl-terminal hydrolase 7, sequence (Q93009 whole entry): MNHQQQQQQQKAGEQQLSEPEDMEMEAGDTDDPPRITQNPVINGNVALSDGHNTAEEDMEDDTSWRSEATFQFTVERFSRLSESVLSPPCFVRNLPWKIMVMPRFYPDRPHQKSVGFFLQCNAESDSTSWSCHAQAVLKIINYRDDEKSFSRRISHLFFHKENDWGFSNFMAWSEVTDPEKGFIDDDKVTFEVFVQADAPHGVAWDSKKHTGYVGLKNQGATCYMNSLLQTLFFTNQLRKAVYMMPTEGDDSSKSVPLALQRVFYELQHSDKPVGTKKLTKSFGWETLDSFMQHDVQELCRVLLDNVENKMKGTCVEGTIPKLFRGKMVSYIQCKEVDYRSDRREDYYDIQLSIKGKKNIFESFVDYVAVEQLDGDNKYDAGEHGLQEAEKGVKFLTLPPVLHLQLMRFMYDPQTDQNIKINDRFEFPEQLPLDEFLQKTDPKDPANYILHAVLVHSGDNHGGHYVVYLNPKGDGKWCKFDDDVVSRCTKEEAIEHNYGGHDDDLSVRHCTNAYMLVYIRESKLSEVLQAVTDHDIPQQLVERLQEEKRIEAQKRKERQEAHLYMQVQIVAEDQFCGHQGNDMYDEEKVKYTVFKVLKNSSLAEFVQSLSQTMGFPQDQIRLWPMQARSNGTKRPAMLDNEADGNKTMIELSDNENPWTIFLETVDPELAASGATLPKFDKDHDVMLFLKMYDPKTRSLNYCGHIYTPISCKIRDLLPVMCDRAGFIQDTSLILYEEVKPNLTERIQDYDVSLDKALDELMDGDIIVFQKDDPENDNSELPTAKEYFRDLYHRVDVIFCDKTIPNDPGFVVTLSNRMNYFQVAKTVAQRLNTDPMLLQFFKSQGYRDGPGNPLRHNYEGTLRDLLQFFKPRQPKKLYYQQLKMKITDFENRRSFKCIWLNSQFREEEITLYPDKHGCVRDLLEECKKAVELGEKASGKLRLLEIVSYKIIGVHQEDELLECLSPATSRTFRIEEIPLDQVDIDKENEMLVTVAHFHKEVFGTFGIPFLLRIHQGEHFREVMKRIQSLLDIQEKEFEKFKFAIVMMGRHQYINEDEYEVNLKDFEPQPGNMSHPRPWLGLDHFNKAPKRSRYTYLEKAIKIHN
MAO-A, sequence (P21396 whole entry): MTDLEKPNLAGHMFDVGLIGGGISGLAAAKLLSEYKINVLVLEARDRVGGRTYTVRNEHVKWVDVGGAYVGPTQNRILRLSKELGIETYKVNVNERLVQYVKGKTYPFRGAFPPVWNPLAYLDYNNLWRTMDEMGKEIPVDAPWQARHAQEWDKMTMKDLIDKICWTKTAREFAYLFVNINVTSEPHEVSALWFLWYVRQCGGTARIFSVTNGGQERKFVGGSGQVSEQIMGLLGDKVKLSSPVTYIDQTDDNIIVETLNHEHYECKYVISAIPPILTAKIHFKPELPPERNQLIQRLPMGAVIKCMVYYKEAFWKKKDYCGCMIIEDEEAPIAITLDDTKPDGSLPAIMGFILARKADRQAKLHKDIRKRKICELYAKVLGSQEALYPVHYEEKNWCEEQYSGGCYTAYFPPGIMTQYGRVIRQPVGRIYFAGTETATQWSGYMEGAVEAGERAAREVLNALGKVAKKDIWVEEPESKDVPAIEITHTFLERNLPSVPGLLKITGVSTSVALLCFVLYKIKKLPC
5-HT2B (h), sequence (P41595 whole entry): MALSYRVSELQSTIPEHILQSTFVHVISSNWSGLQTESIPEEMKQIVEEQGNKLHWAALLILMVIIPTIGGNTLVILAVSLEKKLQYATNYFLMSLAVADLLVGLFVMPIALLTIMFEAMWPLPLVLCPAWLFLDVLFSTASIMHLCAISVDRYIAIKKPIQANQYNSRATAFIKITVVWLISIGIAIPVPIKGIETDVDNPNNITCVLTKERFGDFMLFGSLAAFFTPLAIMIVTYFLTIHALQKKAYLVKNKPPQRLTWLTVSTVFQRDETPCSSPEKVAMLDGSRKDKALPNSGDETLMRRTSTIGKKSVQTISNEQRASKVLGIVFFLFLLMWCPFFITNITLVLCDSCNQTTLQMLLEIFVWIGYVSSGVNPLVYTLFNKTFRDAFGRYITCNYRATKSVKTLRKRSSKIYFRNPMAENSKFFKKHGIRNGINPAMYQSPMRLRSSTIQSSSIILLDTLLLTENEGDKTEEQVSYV
CCK1 (CCKA) (h), sequence (P32238 whole entry): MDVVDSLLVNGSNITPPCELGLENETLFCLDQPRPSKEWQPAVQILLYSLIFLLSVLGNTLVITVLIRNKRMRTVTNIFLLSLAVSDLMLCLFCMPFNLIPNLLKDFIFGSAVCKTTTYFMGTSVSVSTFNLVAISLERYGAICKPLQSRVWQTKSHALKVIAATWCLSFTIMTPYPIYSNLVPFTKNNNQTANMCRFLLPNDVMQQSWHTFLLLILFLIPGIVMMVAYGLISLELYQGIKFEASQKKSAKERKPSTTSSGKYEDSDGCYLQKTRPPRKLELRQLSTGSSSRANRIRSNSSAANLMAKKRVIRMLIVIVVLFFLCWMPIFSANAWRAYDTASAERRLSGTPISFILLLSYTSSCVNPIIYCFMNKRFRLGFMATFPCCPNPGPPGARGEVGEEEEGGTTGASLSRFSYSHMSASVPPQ
COX1(h), sequence (P23219 24-599): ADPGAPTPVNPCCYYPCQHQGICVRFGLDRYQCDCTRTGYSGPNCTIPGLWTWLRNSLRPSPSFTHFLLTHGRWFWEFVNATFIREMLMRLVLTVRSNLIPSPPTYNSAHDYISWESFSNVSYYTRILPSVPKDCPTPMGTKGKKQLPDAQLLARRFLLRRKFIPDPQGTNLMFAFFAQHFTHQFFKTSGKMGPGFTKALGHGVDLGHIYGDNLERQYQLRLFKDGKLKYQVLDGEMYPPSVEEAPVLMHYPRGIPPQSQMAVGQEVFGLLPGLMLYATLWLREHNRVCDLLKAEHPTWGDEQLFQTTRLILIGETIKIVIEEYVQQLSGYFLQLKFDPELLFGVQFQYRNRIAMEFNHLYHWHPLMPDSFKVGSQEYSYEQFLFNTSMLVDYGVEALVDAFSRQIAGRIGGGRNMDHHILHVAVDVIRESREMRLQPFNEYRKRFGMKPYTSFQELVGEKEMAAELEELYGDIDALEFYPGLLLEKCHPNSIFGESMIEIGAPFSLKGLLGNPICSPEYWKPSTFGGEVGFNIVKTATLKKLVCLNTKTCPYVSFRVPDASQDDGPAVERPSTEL
kappa (h) (KOP), sequence (P41145 whole entry): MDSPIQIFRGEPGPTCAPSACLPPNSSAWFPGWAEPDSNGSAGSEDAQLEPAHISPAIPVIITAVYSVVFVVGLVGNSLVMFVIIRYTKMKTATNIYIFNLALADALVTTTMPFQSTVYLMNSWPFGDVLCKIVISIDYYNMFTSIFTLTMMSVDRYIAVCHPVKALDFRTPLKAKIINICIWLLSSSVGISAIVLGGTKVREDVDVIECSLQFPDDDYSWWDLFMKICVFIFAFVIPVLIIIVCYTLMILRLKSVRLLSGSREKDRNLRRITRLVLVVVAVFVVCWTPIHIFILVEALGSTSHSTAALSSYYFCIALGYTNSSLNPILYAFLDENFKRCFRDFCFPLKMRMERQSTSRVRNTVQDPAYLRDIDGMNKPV

Row | Compound | Percentage inhibition (%) ([1]; 1 μM) | Percentage inhibition (%) ([1]; 10 μM) | inhibition at 10 µM [2] [%] | inhibition at 10 µM [3] [%] | inhibition at 10 µM [4] [%] | inhibition at 10 µM [5] [%] | inhibition at 10 µM [6] [%] | inhibition at 10 µM [7] [%] | inhibition at 10 µM [8] [%] | inhibition at 1 µM [9] [%] | inhibition at 10 µM [9] [%] | inhibition at 1 µM [10] [%] | inhibition at 10 µM [10] [%] | inhibition at 1 µM [11] [%] | inhibition at 10 µM [11] [%] | inhibition at 1 µM [12] [%] | inhibition at 10 µM [12] [%] | inhibition at 1 µM [13] [%] | inhibition at 10 µM [13] [%] | inhibition at 1 µM [14] [%] | also measured
1 | CCCCCC(=O)N[C@H]1CSCc2cc(cc(CN3CCN(C(=O)CN4CCN(CC(=O)O)CCN(CC(=O)O)CCN(CC(=O)O)CC4)CC3)c2)CSC[C@@H](C(=O)N[C@@H](CC(=O)O)C(N)=O)NC(=O)[C@H](Cc2ccccc2)NC(=O)[C@H](CCC(N)=O)NC(=O)[C@H]([C@@H](C)O)NC(=O)[C@@H]2CCCN2C(=O)[C@@H]2CCCN2C1=O [Compound 3BP-3407, Hex-[Cys(tMeBn(DOTA-PP))-Pro-Pro-Thr-Gln-Phe-Cys]-Asp-NH2] (Hexanoyl-CPPTQFCD-NH2; linker 1-7 via X1) | 1 | −68 | 24 | 0 | -5 | 7 | 2 | 12 | 10 | 5 | 8 | 2 | 15 | 5 | 5 | -3 | 6 | 1 | 5 | 3 | inhibition at 10 µM [14]: 2%
2 | CCCCCC(=O)N[C@H]1CSCc2cc(CSCCNC(=O)CN3CCN(CC(=O)O)CCN(CC(=O)O)CCN(CC(=O)O)CC3)cc(c2)CSC[C@@H](C(=O)O)NC(=O)[C@H](Cc2ccccc2)NC(=O)[C@H](CCC(N)=O)NC(=O)[C@H]([C@@H](C)O)NC(=O)[C@@H]2CCCN2C(=O)[C@@H]2CCCN2C1=O [Compound 3BP-3554, Hex-[Cys(tMeBn(DOTA-AET))-Pro-Pro-Thr-Gln-Phe-Cys]-OH] | −39 | −372 | 16 | 7 | -25 | 10 | 3 | 7 | 8 | -1 | -2 | 0 | 0 | 1 | 1 | 2 | 1 | 1 | 11 | 3 | inhibition at 10 µM [14]: 2%
